Source: ChEMBL document CHEMBL1201862, “PubChem BioAssay data set” (2004)
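These data come from cells grown in 96-well plates and exposed to compound for 48 hours at five concentrations. Abbreviation: GI50, concentration required for 50% inhibition of growth.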 The source made the active and inactive calls. Cut-off read from the data, not from the text of the source: active = GI50 up to about 1.1 µM and inactive = higher.

How the values were obtained:
Assay in all cases: growth of human tumour cells (NCI), 48 h
Malme-3M = tested on: Malme-3M
HL-60 = tested on: HL-60
SNB-75 = tested on: SNB-75
786-0 = tested on: 786-0
EKVX = tested on: EKVX
OVCAR-4 = tested on: OVCAR-4
SK-MEL-2 = tested on: SK-MEL-2
UACC-257 = tested on: UACC-257
OVCAR-5 = tested on: OVCAR-5
K562 = tested on: K562
HT-29 = tested on: HT-29
CAKI-1 = tested on: CAKI-1
A498 = tested on: A498
COLO 205 = tested on: COLO 205
SF-268 = tested on: SF-268
CCRF-CEM = tested on: CCRF-CEM
TK-10 = tested on: TK-10
HCC 2998 = tested on: HCC 2998

SMILES | GI50 (Malme-3M) | GI50 (HL-60) | GI50 (SNB-75) | GI50 (786-0) | GI50 (EKVX) | GI50 (OVCAR-4) | GI50 (SK-MEL-2) | GI50 (UACC-257) | GI50 (OVCAR-5) | GI50 (K562) | GI50 (HT-29) | GI50 (CAKI-1) | GI50 (A498) | GI50 (COLO 205) | GI50 (SF-268) | GI50 (CCRF-CEM) | GI50 (TK-10) | GI50 (HCC 2998)
Nc1c(C(=O)Nc2ccccc2O)[n+]([O-])c2ccccc2[n+]1[O-] | 83.9 µM (inactive) | 25.8 µM (inactive) | 47.9 µM (inactive) | > 100 µM (inactive) | > 100 µM (inactive) | > 100 µM (inactive) | 40.2 µM (inactive) | 18.8 µM (inactive) | > 100 µM (inactive) | 41.9 µM (inactive) | > 100 µM (inactive) | > 100 µM (inactive) | > 100 µM (inactive) | 42.9 µM (inactive) | – | – | – | –
O=C(CSc1nnc(-c2ccc(/N=C\c3ccc(Cl)cc3)cc2)o1)Nc1ccc([N+](=O)[O-])cc1 | 92.3 µM (inactive) | 26.4 µM (inactive) | 25.4 µM (inactive) | 19.8 µM (inactive) | > 100 µM (inactive) | 26.2 µM (inactive) | 25.4 µM (inactive) | 21.5 µM (inactive) | – | 21.2 µM (inactive) | 19.5 µM (inactive) | – | – | 35.2 µM (inactive) | 24.3 µM (inactive) | 18.5 µM (inactive) | 51.4 µM (inactive) | –
CCC12C[N+]3([O-])CCc4c([nH]c5ccccc45)C(C(=O)OC)(c4cc5c(cc4OC)N(C)C4C(O)(C(=O)OC)C(OC(C)=O)C6(CC)C=CCN7CCC54C76)CC(C3)C1O2 (centres undefined) | 1.61 µM (inactive) | – | 0.242 µM (active) | 0.461 µM (active) | 0.467 µM (active) | 13.3 µM (inactive) | 0.234 µM (active) | 7.01 µM (inactive) | 3.94 µM (inactive) | 0.207 µM (active) | 0.342 µM (active) | 5.93 µM (inactive) | 1.55 µM (inactive) | 0.423 µM (active) | 0.675 µM (active) | 0.401 µM (active) | 5.62 µM (inactive) | 2.55 µM (inactive)
C=C(C)[C@@H]1CC[C@]2(COC(C)=O)CC[C@]3(C)[C@H](CC[C@@H]4[C@@]5(C)CC[C@H](OC(C)=O)C(C)(C)[C@@H]5CC[C@]43C)[C@@H]12 [BETULIN DIACETATE] | – | > 33.1 µM (inactive) | > 50 µM (inactive) | > 50 µM (inactive) | – | > 50 µM (inactive) | > 50 µM (inactive) | > 50 µM (inactive) | – | > 50 µM (inactive) | > 50 µM (inactive) | – | > 50 µM (inactive) | > 50 µM (inactive) | – | > 50 µM (inactive) | – | 0.857 µM (active)
O=C(c1nc2ccc(Cl)cc2nc1O)C(O)c1ccc2c(c1)OCO2 (centres undefined) | > 100 µM (inactive) | 19.7 µM (inactive) | > 100 µM (inactive) | > 100 µM (inactive) | > 100 µM (inactive) | 71.4 µM (inactive) | > 100 µM (inactive) | > 100 µM (inactive) | > 100 µM (inactive) | 53.8 µM (inactive) | > 100 µM (inactive) | – | > 100 µM (inactive) | > 100 µM (inactive) | 91 µM (inactive) | 4.17 µM (inactive) | > 100 µM (inactive) | > 100 µM (inactive)
CSc1nc2c(nc(N)n2C2OC(CO)C(O)C(O)C2O)c(=O)[nH]1 (centres undefined) | > 100 µM (inactive) | > 100 µM (inactive) | > 100 µM (inactive) | > 100 µM (inactive) | > 100 µM (inactive) | > 100 µM (inactive) | – | > 100 µM (inactive) | – | > 100 µM (inactive) | > 100 µM (inactive) | > 100 µM (inactive) | > 100 µM (inactive) | > 100 µM (inactive) | > 100 µM (inactive) | > 100 µM (inactive) | > 100 µM (inactive) | > 100 µM (inactive)
Cc1cc(Cl)ccc1NC(=O)C(=O)C(C(=O)c1ccc2ccccc2c1)C1OC(=O)c2ccccc21 (centres undefined) | 10 µM (inactive) | – | 10.1 µM (inactive) | 8.91 µM (inactive) | 29.2 µM (inactive) | 7.6 µM (inactive) | 12.8 µM (inactive) | 16.1 µM (inactive) | 18.6 µM (inactive) | 8.61 µM (inactive) | 28.4 µM (inactive) | 11.6 µM (inactive) | 7.48 µM (inactive) | 13.2 µM (inactive) | 4.08 µM (inactive) | 1.11 µM (active) | > 10 µM (inactive) | 10.2 µM (inactive)
COc1ccccc1-c1cc(=O)c2cc(C)c(C)c(C(=O)O)c2o1 | > 100 µM (inactive) | > 100 µM (inactive) | 40.2 µM (inactive) | > 100 µM (inactive) | > 100 µM (inactive) | > 100 µM (inactive) | > 100 µM (inactive) | > 100 µM (inactive) | > 100 µM (inactive) | > 100 µM (inactive) | > 100 µM (inactive) | – | > 100 µM (inactive) | > 100 µM (inactive) | > 100 µM (inactive) | > 100 µM (inactive) | > 100 µM (inactive) | > 100 µM (inactive)
O=C1N(c2ccc(Cl)cc2)C(=O)C2(SC=NN2Cc2ccccc2)N1c1ccc(Cl)cc1 (centres undefined) | > 100 µM (inactive) | 7 µM (inactive) | 64.7 µM (inactive) | > 100 µM (inactive) | > 100 µM (inactive) | > 100 µM (inactive) | – | > 100 µM (inactive) | – | 9.59 µM (inactive) | > 100 µM (inactive) | – | > 100 µM (inactive) | > 10 µM (inactive) | > 100 µM (inactive) | 7.57 µM (inactive) | > 100 µM (inactive) | > 100 µM (inactive)
Cc1cc(=O)oc2cc(OCc3nc4ccccc4c(=O)[nH]3)ccc12 | > 100 µM (inactive) | > 100 µM (inactive) | > 100 µM (inactive) | > 100 µM (inactive) | > 100 µM (inactive) | > 100 µM (inactive) | > 100 µM (inactive) | – | > 100 µM (inactive) | > 100 µM (inactive) | > 100 µM (inactive) | > 100 µM (inactive) | > 100 µM (inactive) | > 100 µM (inactive) | > 100 µM (inactive) | > 100 µM (inactive) | > 100 µM (inactive) | > 100 µM (inactive)
COC(=O)/C(=N\NC(=O)c1ccccc1O)C(C#N)c1ccc(Cl)cc1 (centres undefined) | 26.1 µM (inactive) | 24.9 µM (inactive) | – | 18 µM (inactive) | 15.6 µM (inactive) | 26.7 µM (inactive) | 21.7 µM (inactive) | 31.5 µM (inactive) | 34.9 µM (inactive) | 37.9 µM (inactive) | 74.1 µM (inactive) | – | > 100 µM (inactive) | > 100 µM (inactive) | 13.2 µM (inactive) | 36.8 µM (inactive) | > 100 µM (inactive) | 30.3 µM (inactive)
O=C(CSc1nnc(-c2ccc(/N=C\c3ccc(Cl)cc3)cc2)o1)Nc1cccc([N+](=O)[O-])c1 | > 100 µM (inactive) | > 100 µM (inactive) | > 100 µM (inactive) | > 100 µM (inactive) | > 100 µM (inactive) | > 100 µM (inactive) | > 100 µM (inactive) | > 100 µM (inactive) | – | > 100 µM (inactive) | > 100 µM (inactive) | – | – | > 100 µM (inactive) | > 100 µM (inactive) | > 100 µM (inactive) | > 100 µM (inactive) | –
CCc1c(C#N)c(=O)[nH]c(=O)n1CCN1CCN(C(=O)NCCCCCCNC(=O)N2CCN(CCn3c(CC)c(C#N)c(=O)[nH]c3=O)CC2)CC1 | – | > 100 µM (inactive) | > 10 µM (inactive) | > 100 µM (inactive) | > 100 µM (inactive) | > 100 µM (inactive) | – | > 100 µM (inactive) | – | > 100 µM (inactive) | > 100 µM (inactive) | > 100 µM (inactive) | > 100 µM (inactive) | > 100 µM (inactive) | – | > 100 µM (inactive) | > 100 µM (inactive) | > 100 µM (inactive)
COc1cc(/C=C2\NC(=O)C3Cc4c(OC)c(C)c(OC)c(OC)c4C2N3C)c(OC)c(C)c1OC (centres undefined) | > 100 µM (inactive) | > 100 µM (inactive) | > 100 µM (inactive) | > 100 µM (inactive) | > 100 µM (inactive) | > 100 µM (inactive) | – | > 100 µM (inactive) | > 100 µM (inactive) | > 100 µM (inactive) | > 100 µM (inactive) | > 100 µM (inactive) | > 100 µM (inactive) | > 100 µM (inactive) | > 100 µM (inactive) | > 100 µM (inactive) | > 100 µM (inactive) | > 100 µM (inactive)
C/C(=N\NC(=S)NC(CCC(=O)O)C(=O)O)c1ccccn1 (centres undefined) | > 100 µM (inactive) | > 100 µM (inactive) | > 100 µM (inactive) | > 100 µM (inactive) | > 100 µM (inactive) | > 100 µM (inactive) | > 100 µM (inactive) | > 100 µM (inactive) | > 100 µM (inactive) | > 100 µM (inactive) | > 100 µM (inactive) | – | > 100 µM (inactive) | > 100 µM (inactive) | > 100 µM (inactive) | > 100 µM (inactive) | > 100 µM (inactive) | > 100 µM (inactive)
CC(C)C1=CC23CCC4C(C)(C(=O)O)CCCC4(C)C2CC1C1C(=O)N(c2ccccc2)C(=O)C13 (centres undefined) | 67.9 µM (inactive) | 95.9 µM (inactive) | 53.2 µM (inactive) | 55.2 µM (inactive) | – | > 100 µM (inactive) | 20.1 µM (inactive) | 26.1 µM (inactive) | > 100 µM (inactive) | 69.8 µM (inactive) | 38.6 µM (inactive) | > 100 µM (inactive) | – | 24.3 µM (inactive) | 41.1 µM (inactive) | 56.6 µM (inactive) | 43.5 µM (inactive) | –
